Tests used:
[1] = system: primary cells from ALL patient 710; test: Annexin V / propidium iodide apoptosis assay, primary ALL cells; type: cell-based, human; settings: ALL patient 710, 72 hours
Description: (§1) Annexin-V is a phospholipid binding protein with a high affinity for phosphatidylserine (PS). Annexin V will not bind normal, intact cells, but necrotic cells are leaky enough to give Annexin V access to inner membrane PS. Propidium iodide stains DNA. The assay therefore identifies cells undergoing apoptosis.
(§2) Primary cells were isolated from either an AML (patient 774; top row) or ALL (patient 710; bottom row) patient. The cells were then exposed to either control solution (left pair of panels), rhTpo+DMSO (middle pair of panels), or SB559457 (right pair of panels) for 72 hours.

CD34+ cells = test: Liquid culture of human progenitor cells (polyploidization, CD41/CD61 expression); type: cell-based; settings: CD34+ cells in cytokines, 7-10 days
Method: Normal human progenitor cells (CD34+) were used to evaluate capability of Compound A to stimulate proliferation and differentiation of megakaryocytes. CD34+ cells were plated in fibrin clots and cultured for 10 days, after which time colonies were fixed and stained with antibody specific for megakaryocytic marker CD41. […] CD34+ cells were incubated in cytokines with rhTPO or Compound A for periods of 7-10 days, after which time cells in culture were examined for degree of polyploidization, and expression of megakaryocyte lineage markers CD41 and CD61.

N2C-TPO cells = test: Proliferation of TPO dependent cell line N2C-TPO; type: cell-based
Method: N2C-TPO cells were derived by culture of a megakaryblastic cell line in rhTpo for 10 weeks and provided by Glaxo SmithKline Pharmaceuticals (Collegeville, Pa.). N2C-TPO cells were cultured in RPMI (Invitrogen, Carlsbad, Calif.) medium supplemented with 10% Animal Serum Complex—Fetalplex (Gemini Bio-Products, West Sacramento, Calif.), 0.5% Penicillin/Streptomycin (Invitrogen; Carlsbad, Calif.) and 20 ng/ml rhTPO.
In order to determine if Compound A has the ability to function as a thrombopoietin receptor (TpoR) agonist and stimulate proliferation and differentiation of human megakaryocytes, a number of cell culture experiments were performed using the Tpo dependent cell line (N2C-TPO) as well as normal human CD34+ cells. […] Consequently the 5 μM dose was used in further experiments where properties of rhTPO versus Compound A were directly compared.

[2] = system: primary cells from AML patient 774; test: Annexin V / propidium iodide apoptosis assay, primary AML cells; type: cell-based, human; settings: AML patient 774, 72 hours; vs control and Tpo+DMSO
Description: as §1, §2

[3] = system: GAPDH and Redd1 mRNA in primary AML cells; test: Quantitative real time PCR of GAPDH and Redd1 in primary AML cells; type: cell-based, human; settings: primary AML samples, 6 hours, QRT-PCR
[4] = system: cells obtained from AML patients; test: Rescue proliferation assay: rhTPO plus Compound A on AML cells; type: cell-based, human
Method: Proliferation assays were performed on cells obtained from 6 AML patients. In some experiments, cells were first exposed to Compound A and then stimulated with rhTPO five minutes later. To avoid the possibility of all receptors being occupied by Compound A and therefore preventing rhTPO from binding, other experiments were also performed by first stimulating the cells with rhTPO followed by exposure to Compound A 5 minutes later.

human CD34+ cells = test: Megakaryocyte colony forming assay; type: cell-based; settings: Compound A 5 μM vs rhTPO 100 ng/ml; fibrin clots, 10 days, CD41 stain
Method: Normal human progenitor cells were plated in fibrinogen clots at a density of 5000 CD34+ cells per ml. Fibrinogen clots were prepared as follow: cells were re-suspended in IMDM medium supplemented with sodium bicarbonate (3 mg/ml); 3-mercapto-1-2propanediol (0.002%); transferring (300 μg/ml); CaCl2(37 μg/ml); fatty acid free, deionized BSA (10%); insulin (20 μg/ml); cholesterol (5.6 μg/ml) cytokines: IL-3 (10 ng/ml), SCF (10 ng/ml) and rhTPO (100 ng/ml equal 2.8 μM) or Compound A (5 μM). Then clotting mix containing fibrinogen (0.2%) and thrombin (0.2 u/ml). Cells were plated on 35 mm culture dishes and cultured in humidified incubator at 37° C. and 5% CO2. After 10 days, colonies were fixed and stained for megakaryocyte marker CD41a with fluorescently labeled antibody. Megakaryocyte colonies were counted using inverted fluorescent microscope.
Normal human progenitor cells (CD34+) were used to evaluate capability of Compound A to stimulate proliferation and differentiation of megakaryocytes. CD34+ cells were plated in fibrin clots and cultured for 10 days, after which time colonies were fixed and stained with antibody specific for megakaryocytic marker CD41. […]

[5] = system: p70S6 kinase and ribosomal kinase S6 in primary AML cells; test: Western blot of p70S6 and S6 kinase phosphorylation in primary AML cells; type: cell-based, human; settings: primary AML samples, 3 hours; SB559457 5 μM, Tpo 2.86 μM
Method: (§3) Controls and cells stimulated with rhTPO or Compound A were washed twice in PBS, then pelleted. The pellet was dissolved in triple-lysis buffer comprised of 50 mM TRIS, 150 mM NaCl, 0.02% sodium azide, 0.1% sodium dodecyl sulphate (SDS) and 1% Igepal (Sigma, St. Louis, Mo.), and then incubated for 30 min on ice with vortexing every 10 min. The lysate was then spun at maximum speed in a microcentrifuge at 4° C. for 10 min. The extracted cell supernatant was used for Western-blot analysis.
(§4) Protein concentration was determined by a Bradford protein assay (Bio-Rad, Hercules, Calif.). A total of 150 μg protein extract was resolved on a 10% polyacrylamide gel (150V, 60 min.) then transferred to a poly vinylidene fluoride (PVDF) membrane (25V, 60 min). Condensed milk (5%) was used as a blocking solution. The membrane was incubated overnight at 4° C. with primary antibody at a 1:1000 dilution. After incubation, the membrane was washed three times in TBS-T buffer and probed with secondary HRP-conjugated antibody (Amersham Biosciences; Piscataway, N.J.) at dilution 1:1000 for 2 hour at room temperature. All antibodies were purchased from Cell Signaling Technology (Danvers, Mass.).
In an effort to establish a correlation between cell signaling and array data, phosphorylation of kinases involved in Tpo signaling pathway in primary leukemia cells was examined. […]

[6] = system: primary cells from patients with acute lymphocytic leukemia (ALL); test: Proliferation of primary ALL cells; type: cell-based, human; settings: ALL patient samples
Method: (§5) Human primary leukemia cells were obtained from Stem Cell and Leukemia Core at the University of Pennsylvania. Cells were cultured in EGM-2 (Endothelial Cell Medium-2, Cambrex; East Rutherford, N.J.). All cells were cultured in humidified incubator at 37° C. and 5% CO2.
(§6) Samples were obtained from 18 patients with acute myelogenous leukemia (AML), 7 patients with acute lymphocytic leukemia (ALL) and 3 patients with chronic myelogenous leukemia (CML). In 17 out of 18 tested AML samples, Compound A inhibited cell proliferation 70-90% when compared to untreated controls or cells cultured with rhTPO (FIG. 2A).

[7] = system: primary cells from patients with chronic myelogenous leukemia (CML); test: Proliferation of primary CML cells; type: cell-based, human; settings: CML patient samples
Method: as §5, §6

[8] = system: STAT5, ERK, p70S6 kinases and S6 ribosomal protein in N2C-TPO cells; test: Rescue of kinase phosphorylation in N2C-TPO cells (rhTPO plus Compound A); type: cell-based; settings: rhTPO first then Compound A, or the reverse
Method: as §3, §4
In an effort to address these possibilities, similar rescue experiments were performed on N2C-TPO cells while evaluating phosphorylation of kinases involved in TPO pathway.

[9] = system: STAT5, ERK, p70S6, S6 ribosomal protein in human progenitor cells CD34+; test: Western blot analysis of kinase phosphorylation in CD34+ cells; type: cell-based; settings: rhTPO 2.8 μM or Compound A 5 μM
Method: as §3, §4
The effect of Compound A on phosphorylation of kinases known to be important in the Tpo signaling pathway was examined. Kinases evaluated include STAT5, ERK, p70S6, and ribosomal kinase S6. […] The same experiment was performed on human progenitor cells CD34+, which are stimulated by Compound A to differentiate into the megakaryocytes.

[10] = system: STAT5, ERK, p70S6, ribosomal kinase S6 in N2C-TPO cells; test: Western blot analysis of kinase phosphorylation in N2C-TPO cells; type: cell-based; settings: 10 or 30 minutes
Method: as §3, §4
The effect of Compound A on phosphorylation of kinases known to be important in the Tpo signaling pathway was examined. Kinases evaluated include STAT5, ERK, p70S6, and ribosomal kinase S6. […]

[11] = system: primary leukemia cells from patients with acute myelogenous leukemia (AML); test: Proliferation of primary AML cells; type: cell-based, human
Method: as §5, §6
Further the effect of various doses of Compound A (1 μM, 2.5 μM and 5 μM) on AML samples was examined. This experiment was performed on 6 different samples. […] In the remaining 3 samples, doses of 1 μM and 2.5 μM Compound A had no effect on cell proliferation and survival.

Row | Compound | cellular apoptosis [1] | cells expressing megakaryocyte markers CD41 and CD61 (CD34+ cells) | cells with greater than 4N DNA content (CD34+ cells) | concentration of maximal effects on cell proliferation (N2C-TPO cells) | Annexin V and PI positive cells (apoptosis) [2] | expression of GAPDH relative to cells treated with rhTpo [3] | rescue of AML cell survival by rhTPO ([4]; samples 794 and 332, rhTPO added with Compound A) | rescue of AML cell survival by rhTPO ([4]; samples 857, 774, 759, 342, rhTPO added 5 minutes before or after Compound A) | number of megakaryocyte colonies compared to rhTPO (human CD34+ cells) | phosphorylation of p70S6 kinase at Thr421/Ser424 and ribosomal kinase S6 [5] | effect on cell proliferation / growth or viability [6] | effect on cell proliferation / growth or viability [7] | phosphorylation of STAT5, ERK, p70S6 kinases and S6 ribosomal protein with rhTPO plus Compound A [8] | ERK, p70S6 and S6 ribosomal protein phosphorylation [9] | phosphorylation of STAT5 [9] | phosphorylation of STAT5, ERK, p70S6 and ribosomal kinase S6 [10] | effect on cell proliferation and survival ([11]; 1 μM and 2.5 μM, remaining 3 of 6 AML samples) | leukemia cell growth and proliferation ([11]; 5 μM, remaining 3 of 6 AML samples) | effect on cell proliferation ([11]; 1 and 2.5 μM, 3 of 6 AML samples) | inhibition of cell proliferation ([11]; 17 out of 18 AML samples, vs untreated controls or cells cultured with rhTPO)
1 | CC1=NN(c2ccc(C)c(C)c2)C(=O)/C1=N\Nc1cc(F)cc(-c2cccc(C(=O)O)c2)c1O [Compound A, 3′-{N′-[1-(3,4-dimethylphenyl)-3-methyl-5-oxo-1,5-dihydropyrazol-4-ylidene]hydrazine}-5′-fluoro-2′-hydroxybiphenyl-3-carboxylic acid] | No significant increases in cellular apoptosis | 35% | 14% | 5 to 10 µM | increase in Annexin V and PI positive cells | at least two times higher | adding rhTPO did attenuate the Compound A effect | not rescued | slightly lower | high phosphorylation | No significant effects | No significant effects | rescue of phosphorylation | activation | only cells exposed to rhTPO | none of those kineses were activated | no effect | inhibited leukemia cell growth and proliferation | had an effect on cell proliferation | 70-90%
2 | rhTPO: Full length recombinant human thrombopoietin (rhTPO) obtained from R&D Systems | – | – | 8% | – | – | – | – | – | – | none or very little phosphorylation | – | – | – | activation | stimulated phosphorylation of STAT5 | high phosphorylation level | – | – | – | –
